Laboratory results as given in PubChem BioAssay AID1645862 (Buhrlage Lab, Dana-Farber Cancer Institute and Novartis …, 2021).
The source made the active and inactive calls. How the calls were made is not given here.

The molecules below were run against Ubiquitin carboxyl-terminal hydrolase 8 (Homo sapiens) (UniProt P40818) (assay: Ubiquitin-specific protease 8 inhibitors, concentration-effect, biochemical, validation of initial actives (AID 1645862;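 further: potency reflects inhibition of USP8 cleavage of a ubiquitin rhodamine substrate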)). Conditions: recombinant USP8 deubiquitinase activity assay.
Chain of Ubiquitin carboxyl-terminal hydrolase 8 (Homo sapiens) (P40818 whole entry, looked up): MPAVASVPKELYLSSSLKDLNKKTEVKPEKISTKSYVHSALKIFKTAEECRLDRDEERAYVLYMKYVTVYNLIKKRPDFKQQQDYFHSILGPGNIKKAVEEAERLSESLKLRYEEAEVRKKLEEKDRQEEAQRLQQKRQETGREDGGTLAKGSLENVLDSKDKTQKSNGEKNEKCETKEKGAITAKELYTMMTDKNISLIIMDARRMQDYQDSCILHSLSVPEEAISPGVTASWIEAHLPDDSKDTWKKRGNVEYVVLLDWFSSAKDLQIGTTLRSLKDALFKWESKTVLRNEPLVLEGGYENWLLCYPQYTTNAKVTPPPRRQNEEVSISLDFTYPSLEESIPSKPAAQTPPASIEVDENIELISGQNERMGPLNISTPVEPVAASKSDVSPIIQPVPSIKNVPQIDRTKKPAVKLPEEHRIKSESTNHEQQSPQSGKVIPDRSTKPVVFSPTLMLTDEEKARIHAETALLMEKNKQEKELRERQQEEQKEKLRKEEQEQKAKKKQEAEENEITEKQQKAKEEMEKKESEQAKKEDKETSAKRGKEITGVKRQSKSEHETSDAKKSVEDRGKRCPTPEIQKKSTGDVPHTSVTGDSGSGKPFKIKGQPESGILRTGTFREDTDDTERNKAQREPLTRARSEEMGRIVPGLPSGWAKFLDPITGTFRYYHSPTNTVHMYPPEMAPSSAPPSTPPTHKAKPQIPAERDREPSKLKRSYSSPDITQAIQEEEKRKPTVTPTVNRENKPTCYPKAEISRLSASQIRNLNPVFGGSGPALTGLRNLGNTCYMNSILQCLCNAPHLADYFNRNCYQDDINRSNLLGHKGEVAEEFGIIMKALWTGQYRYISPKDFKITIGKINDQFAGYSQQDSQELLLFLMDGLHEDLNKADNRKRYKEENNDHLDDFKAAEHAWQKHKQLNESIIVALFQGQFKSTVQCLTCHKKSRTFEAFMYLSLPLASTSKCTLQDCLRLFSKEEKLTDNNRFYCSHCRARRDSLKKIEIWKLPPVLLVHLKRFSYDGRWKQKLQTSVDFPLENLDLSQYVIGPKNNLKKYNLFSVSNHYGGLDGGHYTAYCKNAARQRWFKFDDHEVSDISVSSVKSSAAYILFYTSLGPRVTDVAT

| IC50 | Compound |
| --- | --- |
| > 40 µM (inactive) | COc1ccc(CSc2nc3ccncc3n2CC(=O)Nc2ccc(C)cc2C)cc1 |
| > 40 µM (inactive) | O=C(NCc1ccc(Br)cc1)c1cc(-c2cccnc2)n[nH]1 |
| > 40 µM (inactive) | O=C(COc1ccc(Cl)cc1Cl)Nc1ccccc1-c1nc2ccccc2[nH]1 |
| > 40 µM (inactive) | COc1cc2c(cc1OC)-c1cc(Nc3ccc(Br)cc3)nc(=O)n1CC2 |
| 33.6 µM | O=C(Nc1cc(F)c2nc(N3CCOCC3)ccc2c1)C1CC1 |
| > 40 µM (inactive) | CCOc1ccc(NC(=O)Cn2c(-c3ccccc3)cc(C(C)=O)c2C)cc1 |
| > 40 µM (inactive) | CCCc1nnc(NC(=O)c2cc(-c3ccccc3O)n[nH]2)s1 |
| > 40 µM (inactive) | O=C(CCCc1nnc2c(=O)n(-c3cccc(F)c3)ccn12)NCc1ccc(Cl)cc1 |
| 30.3 µM | Cc1ccc(NC(=O)Cc2nnc3c(-c4nc(C5CC5)no4)cccn23)cc1F |
| > 40 µM (inactive) | O=C(NCC1(c2ccccc2)CCC1)c1nc2n(n1)-c1ccccc1S(=O)(=O)N2 |
| > 40 µM (inactive) | Cc1ccc(-c2nc3c(c(SCC(=O)c4ccccc4)n2)COC(C)(C)C3)cc1 |
| > 40 µM (inactive) | COc1ccccc1NC(=O)Cn1cc(C(=O)c2ccc(C)cc2)c(=O)c2cc(Cl)ccc21 |
| > 40 µM (inactive) | CCOc1cccc(-c2noc(-c3nn(-c4ccccc4)ccc3=O)n2)c1 |
| > 40 µM (inactive) | COc1ccc(CCNC(=O)Cn2c(=O)n(-c3ccc(CC(=O)NCCc4ccccc4)cc3)c(=O)c3ccccc32)cc1OC |
| > 40 µM (inactive) | Cc1ccc(S(=O)(=O)N2CCC3(CC2)OC(=O)Nc2ccccc23)cc1 |
| > 40 µM (inactive) | Cc1cn2nnc(C(=O)Nc3ccc(OC(F)(F)F)cc3)c2c(=O)[nH]1 |
| > 40 µM (inactive) | O=C(CSc1ccc(-c2ccccc2)nn1)Nc1ccc(F)c([N+](=O)[O-])c1 |
| > 40 µM (inactive) | Cc1nc(SCC(=O)NC(C)c2ccccc2)c2oc3ccccc3c2n1 (centres undefined) |
| 7.76 µM | O=C1c2c(O)cccc2C2(Oc3cccc4cccc(c34)O2)C2OC12 (centres undefined) |
| 26.3 µM | COc1cc(/C=C/C(=O)OCC(=O)Nc2ccc([N+](=O)[O-])cc2OC)ccc1O |
| > 40 µM (inactive) | CCCn1cc(-c2nc(-c3ccccn3)no2)c(=O)c2ccccc21 |
| > 40 µM (inactive) | Cc1c(-c2nn3c(-c4ccco4)nnc3s2)cccc1[N+](=O)[O-] |

| IC50 | Compound |
| --- | --- |
| > 40 µM (inactive) | Cc1ccc(-n2nc(C(=O)Nc3ccc(C)cn3)c3ncn(C)c(=O)c32)cc1 |
| 16.6 µM | Brc1ccc(Nc2nc(-c3ccccn3)nc3ccccc23)cc1 |
| > 40 µM (inactive) | COc1ccc2c(c1)c(=O)c(S(=O)(=O)c1ccc(F)cc1)cn2Cc1cccc(F)c1 |
| > 40 µM (inactive) | COCCNC(=O)Cn1c(=O)n(Cc2ccc(C(=O)NCc3ccc(C)cc3)cc2)c(=O)c2ccccc21 |
| 22.6 µM | O=C(c1ccco1)N1CCC2(CC1)CC1(CO2)Nc2ccccc2-n2cccc21 (centres undefined) |
| > 40 µM (inactive) | COc1ccc2c(c1)CCc1c-2n[nH]c1C(=O)Nc1cc(C)on1 |
| > 40 µM (inactive) | Cc1cccc2nc(CSc3nc4ccc([N+](=O)[O-])cc4[nH]3)cn12 |
| > 40 µM (inactive) | COc1cccc(NC(=O)CCc2nnc3n(CCCOC(C)C)c(=O)c4ccccc4n23)c1 |
| > 40 µM (inactive) | COc1cc2c(=O)n(CC3CCCO3)c(=O)n(CC(=O)c3ccc4c(c3)OCO4)c2cc1OC (centres undefined) |
| > 40 µM (inactive) | O=C(Cn1cc(C(=O)C(F)(F)F)c2cc(Br)ccc21)N1CCc2ccccc21 |
| > 40 µM (inactive) | O=c1c2[nH]c3ccccc3c2ncn1CCC1=CCCCC1 |
| > 40 µM (inactive) | CC1CCc2c(sc(NC(=O)c3cccc(S(C)(=O)=O)c3)c2C(N)=O)C1 (centres undefined) |
| > 40 µM (inactive) | O=C(Cn1cnc(-c2noc(-c3ccc(F)cc3)n2)c1)Nc1ccccc1F |
| > 40 µM (inactive) | CCOc1ccc(CCNC(=O)Cn2c(-c3ccc(F)cc3)cc(C(C)=O)c2C)cc1OCC |
| > 40 µM (inactive) | CCOc1ccc2c(c1)c(=O)c(C(=O)c1ccccc1)cn2CC(=O)Nc1ccc2c(c1)OCCO2 |
| > 40 µM (inactive) | CC(C)CC(=O)Nc1cc(F)c2nc(N3CCOCC3)ccc2c1 |
| > 40 µM (inactive) | O=C(Cn1c(=O)n(Cc2ccc3c(c2)OCO3)c(=O)c2cccnc21)Nc1ccc(F)cc1 |
| > 40 µM (inactive) | O=C(Cn1c(=O)n(Cc2ccc3c(c2)OCO3)c(=O)c2ccccc21)NCc1ccco1 |
| > 40 µM (inactive) | O=C(Cn1ncc2c(=O)oc3ccccc3c21)NCc1ccc2c(c1)OCO2 |
| > 40 µM (inactive) | O=C(Nc1ccc(C(F)(F)F)cc1)C1CC(=O)N(c2ccc3c(c2)OCCO3)C1 (centres undefined) |
| > 40 µM (inactive) | O=C(Nc1ccc2c(c1)CCC2)C1Cc2ccccc2CN1C(=O)c1ccccc1 (centres undefined) |
| > 40 µM (inactive) | COc1cccc(-c2cc(C(=O)Nc3cc(C)n(Cc4ccc(Cl)cc4)n3)no2)c1 |

| IC50 | Compound |
| --- | --- |
| > 40 µM (inactive) | COc1ccccc1C(=O)Nc1ccc(-c2nc3ccccc3o2)c(O)c1 |
| > 40 µM (inactive) | O=C(CNC(=O)c1ccc2nc(-n3cccc3)sc2c1)NCc1cccc(Cl)c1 |
| 38.3 µM | N#Cc1cccc(NC(=O)c2[nH]nc3c2COc2ccccc2-3)c1 |
| > 40 µM (inactive) | COC(=O)c1ccc(C(=O)Nc2cc3ccccc3cc2NC(=O)c2ccc(C(=O)OC)cc2)cc1 |
| 6.23 µM | CCCCCCCCCc1cc(OC(=O)c2c(CCCCCCCCC)cc(O)cc2O[C@@H]2O[C@H](CO)[C@@H](O)[C@H](O)[C@H]2O)cc(O)c1C(=O)O |
| > 40 µM (inactive) | Cc1ccc2cc(CNc3ccccc3)c(=O)n(CC(=O)Nc3ccccc3C)c2c1 |
| 0.802 µM | O=c1c(O)c(-c2ccc(O)c(O)c2)oc2cc(O)cc(O)c12 |
| > 40 µM (inactive) | COc1ccc(OC)c(NC2=NS(=O)(=O)C(c3cccc(Br)c3)=C2C)c1 |
| > 40 µM (inactive) | Cc1ccccc1NC(=O)N1CCC(CC(=O)N2CCCCC2)CC1 |
| > 40 µM (inactive) | O=C1CC(O)C(O)c2cccc(O)c21 (centres undefined) |
| > 40 µM (inactive) | Cc1cccc(C)c1NC(=O)CN1C(=O)CC(c2ccccc2)=Nc2ccccc21 |
| 9.44 µM | COc1ccc(C(=O)NC(Cc2ccccc2)c2nc3ccccc3[nH]2)c(OC)c1 (centres undefined) |
| 24.5 µM | CC(=O)[C@H]1c2c(c(O)c3c(O)cccc3c2-c2c3c(c(O)c4c(O)cccc24)C(=O)C[C@](C)(O)[C@H]3C(C)=O)C(=O)C[C@]1(C)O |
| > 40 µM (inactive) | COc1ccccc1CNC(=O)Cn1cnc2c(-c3ccccc3)csc2c1=O |
| > 40 µM (inactive) | O=C(Cn1cc(C(=O)C(F)(F)F)c2ccccc21)N1CCc2ccccc21 |
| > 40 µM (inactive) | COc1ccc(-c2nc(-c3cn(-c4ccccc4)nn3)no2)c(OC)c1 |
| > 40 µM (inactive) | CC(=O)c1ccc(NC(=O)CCc2c(C)c3c(C)nn(-c4ccccc4)c3n(C)c2=O)cc1 |
| > 40 µM (inactive) | Cc1cccc(OCC2=NN3C(=N)/C(=C\c4cc(C)n(-c5cc(C)cc(C)c5)c4C)C(=O)N=C3S2)c1 |
| > 40 µM (inactive) | COc1ccc(Nc2nc3c(S(=O)(=O)c4ccc(C)cc4)nnn3c3ccsc23)c(OC)c1 |
| > 40 µM (inactive) | O=C(Cn1c(=O)n(CC2CCC(C(=O)NC3CCCC3)CC2)c(=O)c2ccccc21)NCCC1=CCCCC1 (centres undefined) |
| > 40 µM (inactive) | Cc1cccc(NC(=O)c2cc(-c3ccc(C)c(C)c3O)n[nH]2)c1 |
| > 40 µM (inactive) | Cc1ccc(NC(=O)COc2ccccc2/C=C2/NC(=O)N(Cc3ccc(F)cc3)C2=O)cc1 |

| IC50 | Compound |
| --- | --- |
| > 40 µM (inactive) | O=C(c1ccco1)N1CCCC1c1nc(-c2ccccc2)n[nH]1 (centres undefined) |
| > 40 µM (inactive) | COc1cc(NC(=O)c2ccc3c(c2)OCO3)ccc1-c1cc2ccccc2oc1=O |
| 3.61 µM | COc1cc(O)c2c(O)c3c(cc2c1)C[C@@]1(O)CC(=O)C(C(N)=O)=C(O)[C@@]1(O)C3=O |
| > 40 µM (inactive) | Cc1ccc2[nH]c(=O)c(-c3nc4ccccn4c3NCc3ccccc3)cc2c1 |
| > 40 µM (inactive) | CC(c1ccccc1)N1CC(O)=C(c2nc3ccccc3s2)C1=N (centres undefined) |
| > 40 µM (inactive) | CCC(=O)Nc1nc2cc(NC(=O)Nc3cc(C)cc(C)c3)ccc2s1 |
| > 40 µM (inactive) | CCOC(=O)c1ccc(NC(=O)Cn2c(=O)n(-c3ccc(CC(=O)NCc4ccco4)cc3)c(=O)c3ccccc32)cc1 |
| > 40 µM (inactive) | CN(C(=O)C1(c2ccccc2)CC1)c1nc2c(s1)CCc1occc1-2 |
| > 40 µM (inactive) | CCc1ccc(NC(=O)C(C)OC(=O)/C=C/c2ccc(S(=O)(=O)Nc3cccc(S(N)(=O)=O)c3)cc2)cc1 (centres undefined) |
| > 40 µM (inactive) | COc1cc(OC)c2c(c1)C(=O)C1=C(COC(C)(O)C1)C2=O (centres undefined) |
| 5.57 µM | O=C(NC1(O)C(=O)c2ccccc2C1=O)c1ccc(-c2csnn2)cc1 |
| > 40 µM (inactive) | O=C(c1ccccc1CN1CCOCC1)N1CCOCC2(C1)CN(c1ccc(F)cc1)C(=O)O2 (centres undefined) |
| > 40 µM (inactive) | NC(=O)C[C@H](NC(=O)[C@H](Cc1ccccc1)n1c(=O)[nH]c2ccccc2c1=O)C(=O)N[C@@H](Cc1ccccc1)C(=O)O |
| > 40 µM (inactive) | CCCC[C@@H](C)/C=C(C)/C=C(\C)C(=O)NC1=C[C@](O)(/C=C/C=C/C=C/C(=O)NC2=C(O)CCC2=O)[C@@H]2O[C@@H]2C1=O |
| > 40 µM (inactive) | Cc1cc(NC(=O)CN2CCCN(S(=O)(=O)c3ccc(F)cc3)CC2)ccc1Br |
| > 40 µM (inactive) | COc1ccc(NC(=O)[C@H](C)NC(=O)c2cc3c(OC)cccc3[nH]2)cc1Cl |
| 7.11 µM | CC(C)(C)C(=O)[C@@H]1[C@@H](C(=O)c2ccc3c(c2)OCO3)[C@@]2(C(=O)Nc3ccccc32)[C@H]2c3ccccc3C=CN12 |
| > 40 µM (inactive) | COc1cc(OC)cc(N2C(=O)N(CC(=O)c3ccc(Br)cc3)c3ccccc3S2(=O)=O)c1 |
| > 40 µM (inactive) | Cn1c(CCNC(=O)c2[nH]nc3c2CCc2ccccc2-3)nc2ccccc21 |
| > 40 µM (inactive) | O=C(Nc1c2c(nn1-c1ccc([N+](=O)[O-])cc1)CSC2)c1c(F)cccc1F |
| > 40 µM (inactive) | Cc1nc2c(-c3ccc(Cl)cc3)c[nH]n2c(=O)c1Cc1ccccc1 |
| > 40 µM (inactive) | O=C(CCSc1ccc(Cl)cc1)c1cccs1 |

| Compound | IC50 |
| --- | --- |
| O=C1CSC(c2ccc(F)cc2)c2c(n(C3CCCCCC3)[nH]c2=O)N1 (centres undefined) | 31.9 µM |
